The record followed here is patent publication US20250111889A1, “DE NOVO DESIGNED MACROCYCLIC OLIGOAMIDES” (UNIVERSITY OF WASHINGTON, priority 2022, published 2025).

Where a SMILES comes first, the peptide text is derived from it. Bridges are numbered along the chain shown (N, C = ends). [ ]: non-standard residue; d: D form. Trp(6-Cl) = N[C@@H](Cc1c[nH]c2cc(Cl)ccc12)C(=O)O; NMePhe(2,4-Me2) = CN[C@@H](Cc1ccc(C)cc1C)C(=O)O; dNMePhe(2,4-Me2) = CN[C@H](Cc1ccc(C)cc1C)C(=O)O; NMePhe(2-Me) = CN[C@@H](Cc1ccccc1C)C(=O)O; NMeNva = CCC[C@H](NC)C(=O)O

A word on the IC50: it is the midpoint of a concentration-inhibition curve. The term Papp denotes a coefficient for how fast a substance crosses the barrier. Low values mean slow passage, high ones fast passage.

One series concerns the target T1, SARS-CoV-2 main protease (Severe acute respiratory syndrome coronavirus 2, UniProt P0DTD1).
T1 construct: SARS-CoV-2 main protease
The series is described as follows: SARS-CoV-2 main protease assay (fluorescence time-course). It is filed as biochemical. Particulars: 10-dose singlet, 3-fold serial dilution starting at 200 uM; increase in fluorescence signal. As for the experimental part:
SARS-CoV-2 main protease: The compounds were tested in 10-dose IC50 singlet with a 3-fold serial dilution starting at 200 uM. The protease activities were monitored as a time-course measurement of the increase in fluorescence signal.
Regarding `O=C1C[C@H](Cc2c(F)c(F)c(F)c(F)c2F)NC(=O)[C@H](Cc2cccnc2)NC(=O)[C@H](Cc2cccc(C(F)(F)F)c2)NC(=O)Cc2ccccc2N1` [Compound 131], the IC50 is 4070 nM.

Regarding `O=C1C[C@H](Cc2ccccc2Cl)NC(=O)[C@H](Cc2cccnc2)NC(=O)[C@H](Cc2cccc(Cl)c2)NC(=O)Cc2ccccc2N1` [Compound 132], 1250 nM corresponded to half-maximal inhibition (IC50). Against the preceding molecule, the IC50 is about 3.3-fold lower. On the same count and under the same terms, then `Cc1ccccc1C[C@@H]1NC(=O)Cc2ccccc2NC(=O)C[C@H](Cc2ccccc2Cl)NC(=O)[C@H](Cc2cccnc2)NC1=O` [Compound 133], with 844 nM. The same measure, in the same setting: then `O=C1C[C@H](Cc2ccc(Br)cc2)NC(=O)[C@H](Cc2cccnc2)NC(=O)[C@H](Cc2cccc(Cl)c2)NC(=O)Cc2ccccc2N1` [Compound 134], with 1220 nM; and `Cc1cccc(C[C@H]2CC(=O)Nc3ccccc3CC(=O)N[C@@H](Cc3ccccc3C)C(=O)N[C@@H](Cc3cccnc3)C(=O)N2)c1` [Compound 135], with 1470 nM. `O=C1C[C@H](Cc2ccc(Cl)c(Cl)c2)NC(=O)[C@H](Cc2cccnc2)NC(=O)[C@H](Cc2cccc(C(F)(F)F)c2)NC(=O)Cc2ccccc2N1` [Compound 136]: the midpoint of inhibition, the IC50, lay at 1470 nM. In other words, the single-digit micromolar range. The same measure, in the same setting: then `O=C1C[C@H](Cc2ccc(Br)cc2)NC(=O)[C@H](Cc2cccnc2)NC(=O)[C@H](Cc2cccc(C(F)(F)F)c2)NC(=O)Cc2ccccc2N1` [Compound 137], with 1270 nM; and `Cc1cccc(C[C@H]2CC(=O)Nc3ccccc3CC(=O)N[C@@H](Cc3cccc(C(F)(F)F)c3)C(=O)N[C@@H](Cc3cccnc3)C(=O)N2)c1` [Compound 138], with 2140 nM; and `Cc1ccccc1C[C@@H]1NC(=O)Cc2ccccc2NC(=O)C[C@H](Cc2c(F)c(F)c(F)c(F)c2F)NC(=O)[C@H](Cc2cccnc2)NC1=O` [Compound 139], with 2370 nM. `Cc1ccccc1C[C@@H]1NC(=O)Cc2ccccc2NC(=O)C[C@H](Cc2cc(F)c(F)cc2F)NC(=O)[C@H](Cc2cccnc2)NC1=O` [Compound 140]: 1530 nM corresponded to half-maximal inhibition (IC50). Compared with the last molecule, the IC50 is about 1.5-fold lower.

`O=C1C[C@H](Cc2ccc(F)cc2)NC(=O)[C@H](Cc2cccnc2)NC(=O)[C@H](Cc2cccc(Cl)c2)NC(=O)Cc2ccccc2N1` [Compound 141] had a half-maximal inhibitory concentration (IC50) of 1840 nM. Same read-out and setting: then `Cc1ccccc1C[C@@H]1NC(=O)Cc2ccccc2NC(=O)C[C@H](Cc2ccc(Cl)c(Cl)c2)NC(=O)[C@H](Cc2cccnc2)NC1=O` [Compound 142], with 1890 nM; and `O=C1C[C@H](Cc2cccc(Cl)c2)NC(=O)[C@H](Cc2cccnc2)NC(=O)[C@H](Cc2cccc(Cl)c2)NC(=O)Cc2ccccc2N1` [Compound 143], with 2650 nM; and `O=C1C[C@H](Cc2ccccc2Cl)NC(=O)[C@H](Cc2cccnc2)NC(=O)[C@H](Cc2cccc(C(F)(F)F)c2)NC(=O)Cc2ccccc2N1` [Compound 144], with 1260 nM. On to `Cc1ccccc1C[C@@H]1NC(=O)Cc2ccccc2NC(=O)C[C@H](Cc2ccccc2)NC(=O)[C@H](Cc2cccnc2)NC1=O` [Compound 218], for which 17800 nM corresponded to half-maximal inhibition (IC50). Against the preceding molecule, the IC50 is about 14-fold higher.

For the next series, the target named is T2, MDM2 (Homo sapiens, UniProt Q00987).
T2 construct: purchased PerkinElmer AL3168C
T2 sequence (Q00987 whole entry): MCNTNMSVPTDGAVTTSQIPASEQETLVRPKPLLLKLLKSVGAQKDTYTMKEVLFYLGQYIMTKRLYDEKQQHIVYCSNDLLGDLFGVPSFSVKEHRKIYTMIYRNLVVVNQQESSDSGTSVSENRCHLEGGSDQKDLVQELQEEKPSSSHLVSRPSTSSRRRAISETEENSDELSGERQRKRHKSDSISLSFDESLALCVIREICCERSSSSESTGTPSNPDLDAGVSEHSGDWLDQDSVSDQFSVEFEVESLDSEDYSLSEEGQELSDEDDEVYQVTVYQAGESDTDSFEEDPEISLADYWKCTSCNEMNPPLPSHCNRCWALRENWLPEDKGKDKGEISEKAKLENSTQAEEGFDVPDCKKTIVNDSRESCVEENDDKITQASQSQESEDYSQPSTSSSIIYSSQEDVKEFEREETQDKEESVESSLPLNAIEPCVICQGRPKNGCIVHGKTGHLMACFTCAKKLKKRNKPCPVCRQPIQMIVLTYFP
The series is described as follows: MDM2 assay (commercial alphalisa kit, PerkinElmer AL3168C). The class given is binding. Particulars: alphalisa kit per manufacturer's instructions; quantity not given. Here is the method: MDM2: The assay was performed using a commercially available alphalisa assay kit from PerkinElmer (part number AL3168C) following the manufacturer's instructions.
(In general: Alpha assays give light when donor and acceptor beads are brought close together.)
As to `CCC[C@H]1C(=O)N[C@@H](Cc2c[nH]c3cc(Cl)ccc23)C(=O)N(C)[C@@H](Cc2ccc(C)cc2C)C(=O)N[C@H](C(N)=O)CSCC(=O)N1C` [Compound 32] ({CH2CO}-[NMeNva][Trp(6-Cl)][NMePhe(2,4-Me2)]C-NH2; thioether N-4), the IC50 was 100 µM. On the same count and under the same terms, then `Cc1ccc(C[C@@H]2C(=O)N[C@@H](Cc3c[nH]c4cc(Cl)ccc34)C(=O)N(C)[C@@H](Cc3ccccc3C)C(=O)N[C@H](C(N)=O)CSCC(=O)N2C)c(C)c1` [Compound 35] ({CH2CO}-[dNMePhe(2,4-Me2)][Trp(6-Cl)][NMePhe(2-Me)]C-NH2; thioether N-4), with 20 µM.

In another series the target is T3, MCL-1 (Homo sapiens, UniProt Q07820).
T3 construct: GST
T3 sequence (Q07820 whole entry, species assumed): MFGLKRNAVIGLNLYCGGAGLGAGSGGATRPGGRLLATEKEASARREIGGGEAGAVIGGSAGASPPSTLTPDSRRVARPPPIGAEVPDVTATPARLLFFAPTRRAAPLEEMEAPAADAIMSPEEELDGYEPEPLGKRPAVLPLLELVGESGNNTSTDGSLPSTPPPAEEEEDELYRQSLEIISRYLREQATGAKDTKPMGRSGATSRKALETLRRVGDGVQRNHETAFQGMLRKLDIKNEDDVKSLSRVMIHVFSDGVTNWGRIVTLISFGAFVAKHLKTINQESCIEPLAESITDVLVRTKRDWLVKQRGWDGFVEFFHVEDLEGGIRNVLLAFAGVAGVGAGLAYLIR
The series is described as follows: MCL-1 assay (HTRF, Anti-GST-Tb). The class given is binding. Particulars: 10-dose singlet, 3-fold serial dilution starting at 200 uM; HTRF signal after 60 min. As for the experimental part:
MCL-1: The compounds were tested in 10-dose IC50 singlet with a 3-fold serial dilution starting at 200 uM. Compounds in DMSO were added to enzyme solution by using Acoustic Technology. Compounds were incubated with enzyme for 10 min. at room temperature. Respective compounds were then added, and the mixture incubated for another 10 min. Finally, Anti-GST-Tb was added. After 60 min incubation, the HTRF signal was measured.
(TR-FRET usually uses a lanthanide donor and a delayed reading to cut background.)
`Cc1ccccc1CN1CC(=O)N[C@H](C(C)(C)C)C(=O)NCc2cccc(c2)CC(=O)N[C@H](Cc2ccc(Cl)c(Cl)c2)CC1=O` [Compound 11] had a half-maximal inhibitory concentration (IC50) of 4.58 µM.

On to `COc1cc(CN2CC(=O)NCc3ccccc3C(=O)N[C@@H](Cc3ccc(Cl)c(Cl)c3)C(=O)N(CCc3ccc(F)cc3)CC2=O)cc(OC)c1` [Compound 16], for which half-maximal inhibition (IC50) was put at 13.5 µM.

Regarding `COc1cccc(CCN2CC(=O)N[C@H]3CC[C@H](CC3)CC(=O)N(CCc3ccc(C(F)(F)F)cc3)CC(=O)N(Cc3ccc(Cl)c(Cl)c3)CC2=O)c1` [Compound 18], half-maximal inhibition (IC50) was put at 28.2 µM.

`CCOCCN1CC(=O)NCc2ccccc2C(=O)N[C@@H](Cc2ccc(Cl)c(Cl)c2)C(=O)N(CCc2ccc(F)cc2)CC1=O` [Compound 19] returned an IC50 of 40.6 µM. Still for that read-out and setting: then `COc1cccc(CCN2CC(=O)N[C@@H](C(C)C)CC(=O)NCc3cccc(c3)CC(=O)N[C@@H](Cc3ccc(Cl)c(Cl)c3)C2=O)c1` [Compound 29], with 22.8 µM; and `Cc1ccc(C[C@@H]2NC(=O)CCCCNC(=O)CN(CCOc3c(C)cccc3C)C(=O)[C@@H](Cc3ccc(Cl)c(Cl)c3)N(C)C2=O)cc1` [Compound 119], with 18.9 µM; and `CN1C(=O)CN(Cc2cccc(Br)c2)C(=O)CCCCNC(=O)[C@@H](Cc2ccc(C(C)(C)C)cc2)NC(=O)[C@@H]1Cc1ccc(Cl)c(Cl)c1` [Compound 121], with 50.1 µM. The same measure, in the same setting: then `CCC(CC)[C@H]1NC(=O)CN(Cc2ccc(Cl)c(Cl)c2)C(=O)[C@H](Cc2ccc(C(C)(C)C)cc2)NC(=O)CCCCNC1=O` [Compound 122], with 12.3 µM.

System in a further series: not listed separately
In words: in vitro. Particulars: PAMPA. It is filed as in vitro ADME. An excerpt: We measured the passive membrane diffusion of all 29 macrocycles designed with the two approaches using the parallel artificial membrane permeability assay (PAMPA) (FIGS. 3, 4, and 16). Almost all of the macrocycles were quite membrane permeable: 16 of the 29 had log(Papp)'s greater than −6, and only three were not detected in the acceptor well. Under the same conditions, the small molecule drug propranolol achieved log(Papp) of −5.36 (FIG. 16). As expected, designs with exposed polar groups, particularly side chain hydroxyls and primary amides, had lower permeabilities. Overall, the hydrogen-bond containing designs were more permeable than the torsionally-optimized based designs, likely due to fewer exposed backbone polar groups.
PAMPA: Stock solutions of each peptide were prepared gravimetrically by dissolving ca. 1-3 mg of peptide in either 100% MeOH or 100% DMSO to produce ca. 1-10 mM peptide solutions. These stock solutions were stored at 4° C. when not in use. Samples for PAMPA experiments and calibration curves were prepared by diluting these stock solutions to produce 1.2 mL of 20 uM peptide in PBS supplemented with either 5% DMSO, or 10% MeOH. […] The concentration of each peptide in the donor and acceptor wells was quantified by LCMS after approximately 19 hours. […]
Turning to `CC(C)NCC(O)COc1cccc2ccccc12` (centres unmarked) [propranolol], the apparent permeability coefficient (Papp) at 20 uM was 4.37 ×10⁻⁶ cm/s.
